Experimental data reported in publication PMC8742467, “Therapeutical interference with the epigenetic landscape of germ cell tumors: a comparative drug study and new mechanistical insights” (Clinical Epigenetics, 2022).

Columns and labels:
[1] = test system: phosphorylated kinase targets in 2102EP cells; experiment: Proteome Profiler Human Phospho-Kinase Array; type: cell-based; details: 16 h
Protocol: For the detection of phosphorylated kinase targets, the Proteome Profiler Human Phospho-Kinase Array Kit (R&D Systems, Abingdon, UK) was used according to the manufacturer’s instructions. The ChemiDoc Imaging System (Bio-Rad Laboratories, Feldkirchen, Germany) was used for detection. 2102EP cells were harvested after 16 h of treatment with the epi-drugs. Pixel density was analyzed using Fiji ImageJ 1.53c.

[2] = test system: transcriptome of 2102EP cells; experiment: RNA sequencing; type: cell-based, Human; details: 16 h
Protocol: Transcriptome analysis has been performed as previously described at the core facility ‘Genomics & Transcriptomics’ (Prof. Dr. Karl Köhrer, Biomedical Research Center, Heinrich Heine University, Düsseldorf, Germany) and has been publicly shared via GEO (https://www.ncbi.nlm.nih.gov/geo/, GSE189472). RNA samples were quantified and measured as previously described. Statistical analyses were performed using the ‘Differential Expression in two groups’ tool (version 1.02) (Qiagen) and the resulting p values were corrected for multiple testing by false discovery rate (FDR). Accompanying PCA and heatmap were generated using Qlucore Omics Explorer 3.7 (Qlucore AB, Lund, Sweden). Values of solvent controls wereaveraged from the studies GSE189472, GSE190792 and GSE190022 [95].

[3] = test system: DNA methylation (5mC, 5hmC) in 2102EP cells; experiment: DNA slot blot (5mC, 5hmC); type: cell-based, Human; details: 24 h
GCT cell lines = experiment: XTT cell viability assay, GCT cell lines (pre-screen / summary); type: cell-based, Human; details: first pre-screen, SE and EC proxies TCam-2 and 2102EP, XTT
Protocol: The […] (XTT) assays were performed as described previously. In summary, for GCT and fibroblast cell lines 5 × 10^3 cells (3 × 10^3 for UC, PCa and RCC cell lines) per 96-well were seeded and different drug concentrations (see Additional file 2: Fig. S2, Additional file 3: Fig. S3) or corresponding solvents were added to the cells the following day. For drug details see Additional file 12: Table S2 C. Each condition was analyzed in four technical replicates and EC50 values were calculated by GraphPad Prism v8.

[4] = test system: histone modifications in 2102EP cells; experiment: Mass spectrometry analysis of histone modifications (Mod Spec); type: cell-based, Human
Protocol: 2102EP cells were treated with the EC50 concentrations for Quisinostat, JIB-04, Chaetocin, MZ-1, LP99, PRT4165, GSK343 and DMSO as solvent control. The cells were harvested via trypsinization after 16 h. The mass spectrometric analysis of histone modifications was outsourced to the Mod Spec service by Active Motif (Carlsbad, CA, USA). Histone extraction and mass spectrometric analysis was performed as described previously. Raw data were transformed into z-scores as the input. The heatmap was generated in R using ‘pheatmap’ with default settings and provided by Active Motif.

[5] = sorted data log2>±1.5, FDR p<0.05
[6] = 2102EP cells, Mod Spec raw data
[7] = 2102EP, EC50, 16 h, vs solvent control

## Clc1ccc(N/N=C(\c2ccccc2)c2ccccn2)nc1 [JIB-04]
[1]
  CREB, STAT3 and STAT5 phosphorylation and total levels of β-Catenin and HSP60: decreased
  ERK1/2 phosphorylation: decreased
  p53 S15 phosphorylation: increased
[2]; [5]
  DDIT4 Log2 fold change vs. DMSO: 1.60
  EIF3CL Log2 fold change vs. DMSO: -1.72
  SLC16A3 Log2 fold change vs. DMSO: 1.76
[2]; unsorted data
  A1BG Log2 fold change vs. DMSO: -0.0173
  A1CF Log2 fold change vs. DMSO: -2.00
  A2M Log2 fold change vs. DMSO: 0.04
[3]
  reduction in 5mC levels: 27%
GCT cell lines
  EC50 / effective concentration in words: nanomolar range
[4]; [6]
  H1.4: K25AC, % of peptide pool: 0.003915%
  H1.4: K25ME1, % of peptide pool: 2.18%
  H1.4: K25ME2, % of peptide pool: 0.06041%
  H1.4: K25ME3, % of peptide pool: 0.002903%
  H1.4: K25UN, % of peptide pool: 97.7528%
  H2A1: K13AC, % of peptide pool: 0.01774%
  H2A1: K13UN, % of peptide pool: 99.9823%
  H2A1: K15AC, % of peptide pool: 0.006947%
  H2A1: K15UB, % of peptide pool: 0%
  H2A1: K15UN, % of peptide pool: 99.9931%
  H2A3: K13AC, % of peptide pool: 0.0449%
  H2A3: K13UN, % of peptide pool: 99.9551%
  H2A3: K15AC, % of peptide pool: 0.04676%
  H2A3: K15UB, % of peptide pool: 0%
  H2A3: K15UN, % of peptide pool: 99.9532%
  H2A: K5AC, % of peptide pool: 17.3435%
  H2A: K5UN, % of peptide pool: 82.6565%
  H2A: K9AC, % of peptide pool: 2.608%
  H2A: K9UN, % of peptide pool: 97.3916%
  H2A: K36AC, % of peptide pool: 0.02653%
  H2A: K36UN, % of peptide pool: 99.9735%
  H3: K9AC, % of peptide pool: 0.7026%
  H3: K9ME1, % of peptide pool: 34.4011%
  H3: K9ME2, % of peptide pool: 29.5437%
  H3: K9ME3, % of peptide pool: 3.1432%
  H3: K9UN, % of peptide pool: 32.2094%
  H3: K14AC, % of peptide pool: 29.7131%
  H3: K14UN, % of peptide pool: 70.2869%
  H3: K18AC, % of peptide pool: 13.9058%
  H3: K18ME1, % of peptide pool: 0.1878%
  H3: K18UN, % of peptide pool: 85.9064%
  H3: K23AC, % of peptide pool: 21.6519%
  H3: K23ME1, % of peptide pool: 0.01047%
  H3: K23UN, % of peptide pool: 78.3377%
  H3: K56AC, % of peptide pool: 0.09324%
  H3: K56ME1, % of peptide pool: 0.04566%
  H3: K56UN, % of peptide pool: 99.8611%
  H3: K64AC, % of peptide pool: 0.01353%
  H3: K64UN, % of peptide pool: 99.9865%
  H3: K79AC, % of peptide pool: 0.03684%
  H3: K79ME1, % of peptide pool: 12.2939%
  H3: K79ME2, % of peptide pool: 5.57%
  H3: K79ME3, % of peptide pool: 6.201%
  H3: K79UN, % of peptide pool: 75.8979%
  H3: K122AC, % of peptide pool: 0.03356%
  H3: K122UN, % of peptide pool: 99.9664%
  H3: Q19ME1, % of peptide pool: 0.003167%
  H3: Q19UN, % of peptide pool: 99.9968%
  H3: Q55ME1, % of peptide pool: 0.032%
  H3: Q55UN, % of peptide pool: 99.968%
  H3: R42ME2, % of peptide pool: 1.896%
  H3: R42UN, % of peptide pool: 98.1041%
  H3: R49ME2, % of peptide pool: 4.211%
  H3: R49UN, % of peptide pool: 95.789%
  H3R2UN: K4AC, % of peptide pool: 0.05876%
  H3R2UN: K4ME1, % of peptide pool: 17.7716%
  H3R2UN: K4ME2, % of peptide pool: 0.2231%
  H3R2UN: K4ME3, % of peptide pool: 0.06844%
  H3R2UN: K4UN, % of peptide pool: 81.8781%
  H3R2UN: Q5ME1, % of peptide pool: 0.02831%
  H3R2UN: Q5UN, % of peptide pool: 99.9717%
  H3.1: K27AC, % of peptide pool: 2.414%
  H3.1: K27ME1, % of peptide pool: 49.3304%
  H3.1: K27ME2, % of peptide pool: 16.204%
  H3.1: K27ME3, % of peptide pool: 1.814%
  H3.1: K27UN, % of peptide pool: 30.2382%
  H3.1: K36AC, % of peptide pool: 0.1106%
  H3.1: K36ME1, % of peptide pool: 13.2702%
  H3.1: K36ME2, % of peptide pool: 51.7553%
  H3.1: K36ME3, % of peptide pool: 20.9267%
  H3.1: K36UN, % of peptide pool: 13.9372%
  H3.3: K27AC, % of peptide pool: 4.408%
  H3.3: K27M, % of peptide pool: 0%
  H3.3: K27ME1, % of peptide pool: 52.2182%
  H3.3: K27ME2, % of peptide pool: 11.913%
  H3.3: K27ME3, % of peptide pool: 2.973%
  H3.3: K27UN, % of peptide pool: 28.488%
  H3.3: K36AC, % of peptide pool: 1.2917%
  H3.3: K36ME1, % of peptide pool: 11.4367%
  H3.3: K36ME2, % of peptide pool: 56.7436%
  H3.3: K36ME3, % of peptide pool: 20.5666%
  H3.3: K36UN, % of peptide pool: 9.961%
  H4: K5AC, % of peptide pool: 7.467%
  H4: K5UN, % of peptide pool: 92.5334%
  H4: K8AC, % of peptide pool: 11.3876%
  H4: K8UN, % of peptide pool: 88.6124%
[4]; 2102EP cells, Mod Spec raw data, histone H4 K12 acetylated
  H4: K12AC, % of peptide pool: 6.714 % of peptide pool
[4]; 2102EP cells, Mod Spec raw data, histone H4 K12 unmodified
  H4: K12UN, % of peptide pool: 93.2862 % of peptide pool
[4]; 2102EP cells, Mod Spec raw data, histone H4 K16 acetylated
  H4: K16AC, % of peptide pool: 46.6822 % of peptide pool
[4]; 2102EP cells, Mod Spec raw data, histone H4 K16 unmodified
  H4: K16UN, % of peptide pool: 53.3178 % of peptide pool
[4]; 2102EP cells, Mod Spec raw data, histone H4 K20 acetylated
  H4: K20AC, % of peptide pool: 14.5151 % of peptide pool
[4]; 2102EP cells, Mod Spec raw data, histone H4 K20 dimethylated
  H4: K20ME2, % of peptide pool: 53.9426 % of peptide pool
[4]; 2102EP cells, Mod Spec raw data, histone H4 K20 monomethylated
  H4: K20ME1, % of peptide pool: 5.183 % of peptide pool
[4]; 2102EP cells, Mod Spec raw data, histone H4 K20 trimethylated
  H4: K20ME3, % of peptide pool: 2.177 % of peptide pool
[4]; 2102EP cells, Mod Spec raw data, histone H4 K20 unmodified
  H4: K20UN, % of peptide pool: 24.182 % of peptide pool
[4]; [7]
  change of histone modifications of the expected mode of action (Mod Spec): slightly increased H3K4me2/me3 marks
  off-target changes of histone modifications (Mod Spec): decrease in H4K16ac and H4K20ac
